In patent US20230372346A1, “TREATMENT REGIMENS FOR EXON-20 INSERTION MUTANT EGFR CANCERS” (CULLINAN PEARL CORP., priority 2020, published 2023):
Entries after “also recorded” stand apart in the source; their conditions may differ. Where two headings read alike, the source gives them in different places.

Assays:
[1] = tested on: NSCLC cell lines harboring mutant EGFR; conditions: LXF 2478 and NCI-H1975 EGFR D770_N771insSVD cells; with inhibition of EGFR phosphorylation and induction of caspase 3/7; cited from earlier work
[2] = tested on: mutant EGFRs that possess mutations at L792 (L792H, L792F, L792Y) in exon 20 in combination with ex19del+T790M or L858R+T790M; conditions: cited from earlier work
[3] = target: WT EGFR (Homo sapiens, UniProt P00533); conditions: cited from earlier work
Chain of WT EGFR (P00533 25-1210): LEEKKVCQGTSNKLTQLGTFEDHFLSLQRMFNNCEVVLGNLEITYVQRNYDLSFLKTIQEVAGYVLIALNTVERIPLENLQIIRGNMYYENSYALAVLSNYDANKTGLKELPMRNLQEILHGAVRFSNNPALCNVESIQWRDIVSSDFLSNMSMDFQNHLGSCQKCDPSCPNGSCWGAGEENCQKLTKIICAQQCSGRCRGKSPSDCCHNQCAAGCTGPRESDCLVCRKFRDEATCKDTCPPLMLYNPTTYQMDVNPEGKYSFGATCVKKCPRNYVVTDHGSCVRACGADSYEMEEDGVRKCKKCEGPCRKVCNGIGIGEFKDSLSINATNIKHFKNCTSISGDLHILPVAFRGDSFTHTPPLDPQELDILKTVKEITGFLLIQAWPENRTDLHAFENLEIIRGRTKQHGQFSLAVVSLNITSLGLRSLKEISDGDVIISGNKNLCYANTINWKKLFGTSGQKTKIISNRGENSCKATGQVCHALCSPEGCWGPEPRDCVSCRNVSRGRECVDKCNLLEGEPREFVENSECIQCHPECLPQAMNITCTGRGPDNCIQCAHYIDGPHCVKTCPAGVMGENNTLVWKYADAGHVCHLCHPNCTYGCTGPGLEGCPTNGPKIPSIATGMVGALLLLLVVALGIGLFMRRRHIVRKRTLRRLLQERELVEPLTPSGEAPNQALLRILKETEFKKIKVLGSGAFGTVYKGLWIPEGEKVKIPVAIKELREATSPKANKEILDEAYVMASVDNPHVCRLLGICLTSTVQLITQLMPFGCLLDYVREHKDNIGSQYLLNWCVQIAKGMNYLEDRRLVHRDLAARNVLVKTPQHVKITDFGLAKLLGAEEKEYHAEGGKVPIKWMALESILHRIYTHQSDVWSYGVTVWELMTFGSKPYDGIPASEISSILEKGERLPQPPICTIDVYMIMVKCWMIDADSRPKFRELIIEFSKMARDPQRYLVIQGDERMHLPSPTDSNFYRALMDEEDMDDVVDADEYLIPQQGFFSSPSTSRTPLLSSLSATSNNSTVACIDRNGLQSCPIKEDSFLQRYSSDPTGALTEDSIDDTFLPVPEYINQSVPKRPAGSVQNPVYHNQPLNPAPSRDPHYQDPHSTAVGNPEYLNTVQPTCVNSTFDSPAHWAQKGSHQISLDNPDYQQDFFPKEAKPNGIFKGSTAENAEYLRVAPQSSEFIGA

[4] = tested on: EGFR and EGFR mutants that harbor an exon 20 insertion mutation; conditions: EGFR and exon 20 insertion mutants; cited from earlier work
[5] = tested on: phosphorylation of EGFR and its downstream effectors; conditions: cited from earlier work
[6] = tested on: KRAS mutant cell lines, NCI-H23 cells, and NCI-H460 cells; conditions: EGFR-independent cell growth; cited from earlier work
[7] = tested on: mutant EGFRs that possess mutations in exon 18 or exon 21; conditions: cited from earlier work
[8] = Phase 1/2a study, safety and adverse events (CTCAE v5); type: in vivo, human
Source text: (§1) This is a Phase 1/2a, open-label, multicenter, first-in-human trial to evaluate the safety and tolerability, PK, PD, and preliminary efficacy of CLN-081 in patients with non-small cell lung cancer (NSCLC) harboring epidermal growth factor receptor (EGFR) exon 20 insertion mutations.
DLTs will be determined based on the incidence and intensity of AEs related to CLN-081 (excluding toxicities clearly related to disease progression or other inter-current illness) as defined below. Dose escalation decisions will be determined based on DLT that occur during the 21 days after initiation of CLN-081 dosing. AEs meeting the definition of a DLT that are observed after 21 days will be made available to the SRC in case a pattern of late toxicity emerges. Toxicity will be graded by the Common Toxicity Criteria for Adverse Events (CTCAE) v5.0. Patients who experience AEs meeting the criteria for DLT should pause treatment with CLN-081 pending management and resolution of the event, and assessment of the relationship of the AE to CLN-081 administration.
Safety and tolerability will be assessed by the incidence and severity of AEs as determined by CTCAE v5.

[9] = Phase 1/2a study, pharmacokinetics; type: in vivo, human
Method: as §1
PK analysis has been performed with CLN-081 plasma concentrations determined at pre-dose, 0.5, 1, 2, 3, 4, 6, 8 and 24 hour % post initial dose on Cycle (C) I Day (D) I and C1D15. […] CLN-081 has typically been rapidly absorbed with tmax values ranging from 0.5 to 2 hours and a mean average terminal phase elimination half-life (t1/2) of approximately 4 hours.

[10] = tested on: mutant EGFRs that possess in-frame insertion mutations in exon 20; conditions: A763_Y764insFQEA, V769_D770insASV, D770_N771insG, D770_N771insSVD, H773_V774insNPH, H773_V774insPH; cited from earlier work
[11] = tested on: Ba/F3 harboring wild type EGFR; conditions: cited from earlier work
[12] = tested on: subcutaneously-implanted tumors expressing EGFR with G719A+T790M mutations; conditions: cited from earlier work
[13] = tested on: cells expressing EGFR with exon 20 insertion mutations; conditions: cells expressing EGFR with exon 20 insertion mutations compared with cells expressing WT EGFR; cited from earlier work
[14] = tested on: subcutaneously-implanted tumors expressing EGFR with exon 20 insertions; conditions: cited from earlier work
[15] = tested on: Ba/F3 cell lines harboring EGFR with mutations in exon 18 or exon 21; conditions: cited from earlier work
[16] = G719A, G719S, G719C, E709K, E709A, L861Q
[17] = 44/45 patients, all dose levels
[18] = unbound, 100 mg BID, patient 0102-001
[19] = unbound, 100 mg BID, patient 0104-005
[20] = unbound, 100 mg BID, patient 0701-001

## C=CC(=O)N[C@H]1C=C(C)c2c(-c3cnc4ccccc4c3)c3c(N)ncnc3n2C1 [Compound 1, (S)—N-(4-amino-6-methyl-5-(quinolin-3-yl)-8,9-dihydropyrimido[5,4-b]indolizin-8-yl)acrylamide]
[1]
  growth of NSCLC cells with EGFR exon 20 insertions: suppressed the growth
[2]; L792H, L792F, L792Y each with ex19del+T790M or L858R+T790M
  potency in inhibiting the phosphorylation of mutant EGFRs: intensive cellular potency
[2]; baseline ex19del+T790M or L858R+T790M
  absolute activity and selectivity over baseline mutations compared with osimertinib, erlotinib and Afatinib: higher
[3]
  inhibition against WT EGFR: moderate inhibition
[4]
  inhibition of in vitro phosphorylation activity of EGFR and EGFR mutants: inhibited
[5]; human lung cancer xenografts harboring EGFR exon 20 insertions
  in vivo inhibitory effect on the phosphorylation of EGFR and its downstream effectors: potent and durable in vivo inhibitory effect
[5]; in vivo
  effect on skin tissue with WT EGFR: spares skin tissue with WT EGFR
[6]
  GI50: > 3000 nM
[7]; G719A+T790M, L861Q+T790M
  inhibition against EGFRs harboring T790M and either exon 18 or exon 21 mutations: intensive inhibition
[7]; [16]
  activity compared with erlotinib and osimertinib: higher
  potency in inhibiting the phosphorylation of mutant EGFRs: intensive cellular potency
[8]; 4 patients
  patients with treatment-related discontinuations: 9%
[8]; 5 patients
  patients requiring dose reductions: 11%
[8]; 8/45 patients, all dose levels
  patients who experienced Gr ≥3 TRAEs: 18%
[8]; 20/45 patients, all dose levels
  patients who experienced grade ≥3 AEs: 44%
[8]; [17]
  patients who experienced a treatment related adverse event (TRAE), irrespective of grade: 98%
  patients who experienced an adverse event (AE), irrespective of grade or attribution: 98%
[8]; Gr 3 diarrhea at 150 mg BID, the highest dose cohort, listed as CLN-081
  patients with dose limiting toxicity (DLT): One and one
[8]; N = 45
  Grade ≥3 TRAEs in all patients: Anemia, %: 9%
  Grade ≥3 TRAEs in all patients: Diarrhea, %: 2%
  Grade ≥3 TRAEs in all patients: Increased ALT, %: 4%
  Grade ≥3 TRAEs in all patients: Increased AST, %: 4%
  Grade ≥3 TRAEs in all patients: Increased Amylase, %: 2%
  Grade ≥3 TRAEs in all patients: Neutropenia, %: 2%
  Grade ≥3 TRAEs in all patients: Stomatitis, %: 2%
[8]; all dose levels
  patients with Gr ≥3 treatment-related rash: no patients
  patients with treatment-related Gr 3 diarrhea: one
[8]; any grade, N = 45
  TRAEs in ≥15% of patients: Anemia, %: (18) %
  TRAEs in ≥15% of patients: Diarrhea, %: (22) %
  TRAEs in ≥15% of patients: Dry Skin, %: (16) %
  TRAEs in ≥15% of patients: Increased AST, %: (16) %
  TRAEs in ≥15% of patients: Nausea, %: (18) %
  TRAEs in ≥15% of patients: Paronychia, %: (22) %
  TRAEs in ≥15% of patients: Rash, %: (76) %
  TRAEs in ≥15% of patients: Stomatitis, %: (18) %
[8]; in vivo
  diarrhea compared to historical experience with other EGFR inhibitors: reduced frequency and severity of diarrhea
  most common AEs, regardless of attribution or grade: rash, anemia and diarrhea
  safety profile: acceptable safety profile
  safety profile at efficacious dose levels compared to other TKIs targeting EGFR exon 20 insertion mutations: superior safety profile
[8]; patient had also experienced pneumonitis on osimertinib
  patients who discontinued due to treatment-related Gr 2 pneumonitis: one
[9]; C1D1 to C1D15, listed as CLN-081
  change in systemic exposure levels / drug accumulation: Minimal to no increase; also recorded: no evidence of meaningful drug accumulation
[9]; across the dose range tested
  dose proportionality of Cmax and AUC: dose proportional increase
[9]; human, plasma, oral, 100 mg, 100 mg BID, patient 0102-001, read-out: T1/2 (converted)
  half-life: 3.6 h
[9]; human, plasma, oral, 100 mg, 100 mg BID, patient 0104-005, read-out: T1/2 (converted)
  half-life: 6.1 h
[9]; human, plasma, oral, 100 mg, 100 mg BID, patient 0701-001, read-out: T1/2 (converted)
  half-life: 3.6 h
[9]; human, plasma, po, oral BID, read-out: mean average terminal phase elimination half-life (t1/2) (converted)
  half-life: ~4 h
[9]; human, plasma, oral, 30-100 mg BID
  Tmax: 0.5 to 2 h
[9]; [18]
  uAUC*: 957 ng·h/mL
  uCmax: 260 ng/mL
[9]; [19]
  uAUC*: 1213 ng·h/mL
  uCmax: 274 ng/mL
[9]; [20]
  uAUC*: 1353 ng·h/mL
  uCmax: 418 ng/mL
[9]; unbound, 30 to 100 mg BID
  AUC0-8hr versus dose: generally increase with increasing dose
  Cmax versus dose: generally increase with increasing dose
[10]
  potency in inhibiting the phosphorylation of mutant EGFRs: intensive cellular potency
[11]
  IC50: 597 nM
[12]; dose-dependent
  tumor growth inhibition: significant tumor growth inhibition effects
[12]; mouse, in vivo
  body weight loss, fecal abnormalities, or skin abnormalities: not effected at a cost of body weight loss, fecal abnormalities, or skin abnormalities
[13]
  inhibitory effect on proliferation: more potent and selective inhibitory effect
[14]; V769_D770insASV, D770_N771insSVD, H773_V774insNPH, dose-dependent
  antitumor efficacy: striking tumor growth inhibition and tumor regression effects
[14]; nude mice transplanted with NCI-H1975 EGFR D770_N771insSVD
  antitumor efficacy of twice-daily versus once-daily administration: not inferior
[15]; T790M in addition to either G719A or L861Q
  selectivity index compared to osimertinib: higher
[15]
  selectivity index (ratio between IC50 for WT EGFR and mutant EGFR cell lines) compared to erlotinib and afatinib: much higher
